How the values were obtained:
Lxrα = molecular target: T1, Lxrα (Homo sapiens, UniProt Q13133); experiment: Lxr-responsive luciferase reporter assay (Lxre + Lxrα) in SN4741 neural cells; type: cell-based, mouse; conditions: for Lxrα activation, luciferase activity: 10 μM, 24 h
T1 construct: expressed in transfected cells; host or cells: SN4741 mouse neuronal cell line
T1 sequence (Q13133 1-447): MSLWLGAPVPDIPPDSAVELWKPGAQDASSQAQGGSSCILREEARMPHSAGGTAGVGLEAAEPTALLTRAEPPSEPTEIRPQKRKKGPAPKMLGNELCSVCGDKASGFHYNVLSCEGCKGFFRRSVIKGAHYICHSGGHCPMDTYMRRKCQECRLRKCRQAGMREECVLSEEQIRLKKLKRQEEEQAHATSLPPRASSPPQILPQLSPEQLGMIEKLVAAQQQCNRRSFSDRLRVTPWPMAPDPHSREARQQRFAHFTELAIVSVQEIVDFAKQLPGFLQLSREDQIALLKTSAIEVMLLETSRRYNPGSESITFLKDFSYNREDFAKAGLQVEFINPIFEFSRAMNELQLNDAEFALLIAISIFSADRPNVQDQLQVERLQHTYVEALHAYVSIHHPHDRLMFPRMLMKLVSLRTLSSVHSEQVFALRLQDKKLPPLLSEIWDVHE
Description: (§1) Luciferase Reporter Assay.

Lxrβ = molecular target: T2, Lxrβ (Homo sapiens, UniProt P55055); experiment: Lxr-responsive luciferase reporter assay (Lxre + Lxrβ) in SN4741 neural cells; type: cell-based, mouse; conditions: SN4741 cells, 10 μM, 24 h
T2 construct: expressed in transfected cells; host or cells: SN4741 mouse neuronal cell line
T2 sequence (P55055 1-460): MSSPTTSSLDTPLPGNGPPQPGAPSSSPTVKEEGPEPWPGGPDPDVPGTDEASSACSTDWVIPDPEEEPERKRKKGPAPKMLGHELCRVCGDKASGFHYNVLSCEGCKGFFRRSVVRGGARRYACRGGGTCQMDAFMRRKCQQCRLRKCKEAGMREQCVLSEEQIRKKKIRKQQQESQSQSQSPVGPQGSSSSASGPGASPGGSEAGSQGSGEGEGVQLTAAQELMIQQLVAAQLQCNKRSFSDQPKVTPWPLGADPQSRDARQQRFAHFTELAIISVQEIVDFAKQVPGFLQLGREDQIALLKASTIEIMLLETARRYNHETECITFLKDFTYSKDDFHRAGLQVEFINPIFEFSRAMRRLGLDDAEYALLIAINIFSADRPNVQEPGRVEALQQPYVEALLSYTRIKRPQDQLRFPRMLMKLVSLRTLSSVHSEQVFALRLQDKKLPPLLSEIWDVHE
Description: as §1

[1] = system: Islet-1:GFP transgenic zebrafish embryos; type: in vivo; conditions: 10 μM
Procedure: Quantitative PCR. Total RNA was extracted from SN4741 cells and zebrafish treated with the compounds of interest using the RNeasy Mini Kit (Qiagen), 1 μg was treated with RQ1 RNase-free DNase (Promega) and reverse transcribed using Superscript II Reverse Transcriptase (Invitrogen) and random primers (Invitrogen) (RT+ reaction). Parallel reactions without reverse transcriptase enzyme were done as a control (RT− reaction), and Sybergreen real-time quantitative PCR assays were performed. Expression levels were obtained by normalization with the value of the housekeeping gene encoding actin obtained for every sample in parallel assays.
Zebrafish Strain and Mainrenance Zebrafish were raised on a 14/10 h day/night cycle and were kept at 28.5° C. Islet-1:GFP transgenic embryos were obtained via natural spawning and staged in hours or days post fertilization (hpf and dpf) according to Kimmel et al). Embryos older than 24 hpf were treated with 0.03% phenylthiourea (PTU) to inhibit pigmentation. MO injections were performed using splice site specific zebrafish 1xr MO. MO injected embryos were immediately dechorionated and transferred to a 96 well plate and exposed to dimethyl sulfoxide (DMSO) treated or ligand treated medium.
Compound Exposure. Islet-1:GFP embryos were collected by natural mating and immediately (at 1 cell stage) dechorionated and transferred to a 96 well plate. Each of the compounds tested were obtained as 10 mM stock and diluted in embryo medium to a final concentration of 10 μM, and 200 μL was added to each well. DMSO or propan-2-ol treated embryo medium was taken as control. Ligand solutions were replaced every 12 h with fresh ligand solution prepared in PTU treated embryo medium. Embryos were collected at 48 hpf, fixed for 4 h at room temperature with 4% paraformaldehyde and then washed and kept in PBST. Immunocytochemistry was performed using an anti-GFP antibody and fluorescence was viewed and photographed using a Zeiss Axioplan compound microscope and a Zeiss Axiocam digital camera.

[2] = system: mouse E11.5 brain primary cultures; experiment: Mouse E11.5 brain primary cultures (Islet1+, active caspase 3+, BrdU, Nkx6.1 counts); type: cell-based; conditions: wild type cultures, 3 DIV
Procedure: Primary Brain Cultures. Brains from E11.5 mice were manually dissected, plated on poly-D-lysine (150,000 cells/cm2) and grown in serum-free N2 media consisting of 1:1 mixture of F12 and DMEM with 10 ng/mL insulin, 100 μg/mL apo-transferrin, 100 μM putrescine, 20 nM progesterone, 30 nM selenium, 6 mg/mL glucose, and 1 mg/mL BSA. Cells were treated for 3 days in vitro (DIV) with the compounds of interest, fixed with 4% PFA and processed for staining using appropriate antibodies.
For BrdU analysis, cells were treated with BrdU one hour after plating and media was replaced with fresh medium after 16 h. After a further 2 days in culture, cells were treated for 30 min with 2N HCl and then immunocytochemistry was performed to evaluate the number of double BrdU+;Islet1+ cells (a measure of motor neuron neurogenesis). Hoechst staining was performed by permeabilizing cells with a 0.3% Triton-X 100/PBS solution for 5 min followed by incubation with Hoechst 33258 (Sigma) for 10 min.
Antibodies and Detection Procedures. Cells were fixed in 4% PFA, washed in PBS and blocked in 5% normal goat serum/PBS for 1 h at room temperature. Primary antibodies were diluted in PBS (pH 7.4), 0.3% Triton X-100, 1% BSA and incubations were carried out overnight at +4° C. or at room temperature for 2 h. The antibodies used were anti-: BrdU (1:400; Abeam), Islet-1 (1:100; Developmental Studies Hybridoma Bank), cleaved caspase-3 (Asp175) (1:100; Cell Signaling Technology), tyrosine hydroxylase (TH;1:1000; Pel-Freeze) GABA (1:1,000; Sigma), Brn3a (1:250; Millipore), Nkx6.1 (1:200; Novus Biologicals), choline acetyltransferase (ChAT; 1:500; Millipore) and appropriate secondary antibodies (Jackson ImmunoResearch or Alexa). Cells positive for the corresponding marker were counted directly at the microscope at a magnification of 20 x. Cells were counted in every well, in eight consecutive fields (going from one side of the well to the other, passing through the center), in three different wells per experiment and in three different experiments per condition. Random pictures of the wells were taken for every condition to document the result, and representative pictures were subsequently selected to represent the quantitative data. Photos were acquired with a Zeiss Axioplan microscope and a Hamamatsu camera C4742-95 using the Openlab software.

Row | Compound | Lxrα activation, luciferase activity (Lxrα) | Lxrβ activation, luciferase activity (Lxrβ) | also measured
1 | CC(C)[C@@H](O)CC[C@@H](C)[C@H]1CC[C@H]2[C@@H]3CC=C4C[C@@H](O)CC[C@]4(C)[C@H]3CC[C@]12C [24S-HC, Cholest-5-ene-3β,24S-diol] | activate Lxr | activate Lxr | 
2 | CC(C)CCC[C@@H](C)[C@H]1CC[C@H]2[C@@H]3CCC4=CC(=O)CC[C@]4(C)[C@H]3CC[C@]12C [cholest-4-en-3-one] | None of these compounds showed significant activity |  | 
3 | CC(CO)CCC[C@@H](C)[C@H]1CC[C@H]2[C@@H]3[C@H](O)CC4=CC(=O)CC[C@]4(C)[C@H]3CC[C@]12C (stereo partly drawn) [7α,26-diHCO, 7α,26-dihydroxycholest-4-en-3-one] | none of which was found to show significant activity | none of which was found to show significant activity | 
4 | CC(C)CCC[C@@H](C)[C@H]1CC[C@H]2[C@@H]3[C@@H](O)C=C4C[C@@H](O)CC[C@]4(C)[C@H]3CC[C@]12C [7β-HC, Cholest-5-ene-3β,7β-diol] | None of these compounds showed significant activity |  | 
5 | CC(C)CCC[C@@H](C)[C@H]1CC[C@H]2[C@@H]3C=CC4=CC(=O)CC[C@]4(C)[C@H]3CC[C@]12C [cholesta-4,6-dien-3-one] | None of these compounds showed significant activity |  | 
6 | CC(CCC[C@@H](C)[C@H]1CC[C@H]2[C@@H]3[C@H](O)CC4=CC(=O)CC[C@]4(C)[C@H]3CC[C@]12C)C(=O)O (stereo partly drawn) [7αH,3O-CA, 7α-hydroxy-3-oxocholest-4-en-26-oic acid] | none of which was found to show significant activity | none of which was found to show significant activity | abca1 mRNA expression in vivo [1]: not; Islet-GFP expression in cranial nerves ([1]; 48 hpf): failed to regulate Islet-GFP expression
7 | CC(C)CCC[C@@H](C)[C@H]1CC[C@H]2[C@@H]3CC[C@H]4C[C@@H](O)CC[C@]4(C)[C@H]3CC[C@]12C [5α-cholestan-3β-ol] | None of these compounds showed significant activity |  | 
8 | CC(CCC[C@@H](C)[C@H]1CC[C@H]2[C@@H]3[C@@H](O)CC4=CC(=O)CC[C@]4(C)[C@H]3CC[C@]12C)C(=O)O (stereo partly drawn) [7βH,3O-CA, 7β-hydroxy-3-oxocholest-4-en-26-oic acid] | none of which was found to show significant activity | none of which was found to show significant activity | 
9 | CC(C)CC[C@@H](O)[C@@H](C)[C@H]1CC[C@H]2[C@@H]3CC=C4C[C@@H](O)CC[C@]4(C)[C@H]3CC[C@]12C [22R-HC, 22R-hydroxycholesterol, reference compound] |  |  | Lxr luciferase activity with the Lxr antagonist GGPP (Lxrα; metabolite 10 μM + GGPP 10 μM): similarly blocked; Number of Islet1+ cells [2]: does not show an effect towards Islet1+ cells
10 | CC(CO)CCC[C@@H](C)[C@H]1CC[C@H]2[C@@H]3[C@H](O)C=C4C[C@@H](O)CC[C@]4(C)[C@H]3CC[C@]12C (stereo partly drawn) [7α,26-diHC, cholest-5-ene-3β,7α,26-triol] | none of which was found to show significant activity | none of which was found to show significant activity | 
11 | CC(C)CCC[C@@H](C)[C@H]1CC[C@H]2[C@@H]3[C@H](O)CC4=CC(=O)CC[C@]4(C)[C@H]3CC[C@]12C [7α-HCO, 7α-Hydroxycholest-4-en-3-one] | None of these compounds showed significant activity |  | 
12 | C[C@@H](CO)CCC[C@@H](C)[C@H]1CC[C@H]2[C@@H]3CC=C4C[C@@H](O)CC[C@]4(C)[C@H]3CC[C@]12C [26-HC, cholest-(25R)-5-ene-3β,26-diol] | no a significant effect | no a significant effect | Number of Islet1+ cells [2]: no effect on the number of Islet1+ cells
13 | CC(C)CCC[C@@H](C)[C@H]1CC[C@H]2[C@@H]3[C@H](O)CC4=CC(=O)CC[C@]4(C)[C@H]3C[C@H](O)[C@]12C [7α,12α-diHCO, 7α,12α-Dihydroxycholest-4-en-3-one] | None of these compounds showed significant activity |  | 
14 | CC(C)CCC[C@@H](C)[C@H]1CC[C@H]2[C@@H]3CC[C@H]4CC(=O)CC[C@]4(C)[C@H]3CC[C@]12C [5α-cholestan-3-one] | None of these compounds showed significant activity |  | 
15 | CC(C)CCC[C@@H](C)[C@H]1CC[C@H]2[C@@H]3[C@H](O)C=C4C[C@@H](O)CC[C@]4(C)[C@H]3CC[C@]12C [7α-HC, Cholest-5-ene-3β,7α-diol] | None of these compounds showed significant activity |  | 
